{"source": "paper PMC6158189", "about": "“A pharmacological probe identifies cystathionine β-synthase as a new negative regulator for ferroptosis” (Cell Death & Disease, 2018)", "key": {"[1]": {"assay": "viable cells (Annexin V-PI double negative) with CH004 and ferroptosis inhibitors, flow cytometry", "conditions": "human"}, "[2]": {"test_system": "HEK293T cells", "assay": "cell viability (CellTiter 96 Aqueous One)", "format": "cell-based", "conditions": "24 h", "protocol": "Fig. 4 CH004 arrests the cell cycle at the S phase. a CH004 reduces the cell viability of HEK293T and HepG2 cells. HEK293T or HepG2 cells were treated with indicated concentrations of CH004 for 24 h before the cell number was analyzed using the CellTiter96® Aqueous One Solution Cell Proliferation Assay (Promega, Materials and Methods). The means at each concentration of one representative experiment are shown as percentages of DMSO (control, 100%). Means ± SDs (n = 3). b Overexpression of hCBS or knock-down of hCBS counteracts the growth inhibition exerted by CH004 in HEK293T cells. Indicated HEK293T stable cell lines were treated with the CH004 or DMSO for 24 h. Then, the cell viability was quantified with the CellTiter 96® Aqueous One Solution Cell Proliferation Assay under the standard protocol (Promega). […] The efficacy for CBS overexpression and knock-down in HEK293T cells was determined by Western blotting using an anti-CBS antibody (3E1, 1:2000; Abnova). c CH004 induces cell death in HEK293T and HepG2 cells. […] HEK293T cells were incubated with indicated compounds for 12 h, and the DNA content was quantified with propidium iodide to analyze the cell cycle distribution by flow cytometry (e). The cell cycle distributions for HEK293T-shNT and HEK293T-shCBS cells were accordingly analyzed and are shown in f. […]"}, "[3]": {"test_system": "293T-shCBS cells", "assay": "cell viability of stable HEK293T lines", "format": "cell-based", "protocol": "(§1) Fig. 4 CH004 arrests the cell cycle at the S phase. a CH004 reduces the cell viability of HEK293T and HepG2 cells. HEK293T or HepG2 cells were treated with indicated concentrations of CH004 for 24 h before the cell number was analyzed using the CellTiter96® Aqueous One Solution Cell Proliferation Assay (Promega, Materials and Methods). The means at each concentration of one representative experiment are shown as percentages of DMSO (control, 100%). Means ± SDs (n = 3). b Overexpression of hCBS or knock-down of hCBS counteracts the growth inhibition exerted by CH004 in HEK293T cells. Indicated HEK293T stable cell lines were treated with the CH004 or DMSO for 24 h. Then, the cell viability was quantified with the CellTiter 96® Aqueous One Solution Cell Proliferation Assay under the standard protocol (Promega). The means at each concentration are shown as percentages of their respective DMSO controls (100%). Means ± SDs (n = 3). The efficacy for CBS overexpression and knock-down in HEK293T cells was determined by Western blotting using an anti-CBS antibody (3E1, 1:2000; Abnova). c CH004 induces cell death in HEK293T and HepG2 cells. […] The means of percentages of dead cells (DMSO, 100%) from three independent samples are shown in d. Means ± SDs (n = 3). e, f Pharmacological inhibition or genetic knock-down of hCBS in HEK293T cells arrests the cell cycle at S phase. HEK293T cells were incubated with indicated compounds for 12 h, and the DNA content was quantified with propidium iodide to analyze the cell cycle distribution by flow cytometry (e). The cell cycle distributions for HEK293T-shNT and HEK293T-shCBS cells were accordingly analyzed and are shown in f. One representative diagram is shown for each condition. The mean percentages of various cell phases from three independent samples are shown in the respective right panels. Means ± SDs (n = 3). Statistical analyses were performed by two-way ANOVA with Bonferroni post-tests. *p < 0.05; **p < 0.01; ***p < 0.001.\n(§2) HEK293T cells stably expressing hCBS-FL WT or Q222A mutant were generated using lentiviral particles carrying pCDH-hCBS or pCDH empty vector (EV) and pPACK Packaging Plasmid Mix (SBI, Mountain View, CA, USA) according to the manufacturer’s instructions. Similarly, CBS-knock-down HEK293T cells or control cells were obtained using the miRzip lentiviral vector according to the manufacturer’s protocol (SBI, MZIPxxxPA-1). The infected cells were then incubated with 2.5 μg/mL puromycin for two weeks until stable clones were obtained. The target sequence of shRNA-CBS was 5′-GTAGTTCCGCACTGAGTCG-3′, which has been used previously. The scramble control was 5′-TCCGCAGGTATGCACGCGT-3′.\n(§3) Figure S12. CH004 inhibits the proliferation of cells via specifically targeting hCBS. (A-B) Dose-dependent curves of CH004 on the cell viability of CBS-stably-expressed HEK293T (A) or CBS-knockdown cells (B). Percentages of cell viability of CH004 obtained in Figure 4b were fitted to the non-linear equation using GraphPad Prism 5 to get the IC50 values of CH004 in respective cell lines (●, 293T-CBS WT cells; ○, 293T-EV; ▲, 293T-shCBS; △, 293T-shNT). Means ± SDs (n=3). […] HEK293T cells stably expressing of the lentiviral shRNA targeting CBS (shCBS) or control shRNA (shNT) were seeded at the density of ~ 3,000 cells per well in 96-well plates and the cell images in the bright field were acquired at indicated times by Image Xpress Micro® XLS (Molecular Devices, Sunnyvale, CA) under 10 × objective lens. Representative images of two independent experiments (n = 6 for each experiment) are shown in C. The cell numbers of images under 4 × objective lens of one representative experiment were calculated by Image Xpress Software and the data is shown in D. Means ± SDs (n=6). […] HepG2 cells were seeded in a 96-well plate at a density of 20000 cells per well and cultured for 24 h before treatment with indicated concentrations of CH004 for another 24 h. […]"}, "[4]": {"test_system": "293T-shNT cells", "assay": "cell viability of stable HEK293T lines", "format": "cell-based", "conditions": "Homo sapiens, HEK-293T, 24 h", "protocol": "as §1, §2, §3"}, "[5]": {"test_system": "293T-CBS WT cells", "assay": "cell viability of stable HEK293T lines", "format": "cell-based", "protocol": "as §1, §2, §3"}, "[6]": {"test_system": "293T-EV cells", "assay": "cell viability of stable HEK293T lines", "format": "cell-based", "conditions": "Homo sapiens, HEK-293T, 24 h", "protocol": "as §1, §2, §3"}}, "data": [{"smiles": "Cn1nc(Cc2ccccc2)nc2c(=O)n(C)c(=O)nc1-2", "note": "[CH004, 3-benzyl-1,6-dimethylpyrimido[5,4-e][1,2,4]triazine-5,7(1H,6H)-dione]", "values": [{"measurement": "viability at 24 h, 15 μM", "setting": "[1]", "value": 30.8, "unit": "%"}, {"measurement": "IC50", "setting": "[2]", "value": "~17", "unit": "µM"}, {"measurement": "IC50", "setting": "[2]; Homo sapiens, HEK-293T", "value": "16.6 ± 5.3", "unit": "µM"}, {"measurement": "increase of IC50 by CBS knock-down", "setting": "[3]; 293T-shCBS vs 293T-shNT", "value": 15, "unit": "fold"}, {"measurement": "IC50", "setting": "[3]; Homo sapiens, HEK-293T, 24 h", "value": "43.2 ± 8.3", "unit": "µM"}, {"measurement": "IC50", "setting": "[4]", "value": "2.6 ± 0.5", "unit": "µM"}, {"measurement": "counteraction of inhibitory effect by overexpression of CBS", "setting": "[5]; 293T-CBS WT vs 293T-EV", "value": 3, "unit": "fold"}, {"measurement": "IC50", "setting": "[5]; Homo sapiens, HEK-293T, 24 h", "value": "35.5 ± 1.2", "unit": "µM"}, {"measurement": "IC50", "setting": "[6]", "value": "9.6 ± 1.6", "unit": "µM"}]}]}
